Source: patent US5175156A, “Chromic picolinate treatment” (Nutrition 21, priority 1991, dated 1992)
Where “and” joins values, the source holds several entries; their conditions need not be identical. Identical values can stand only once. Entries after “also recorded” stand apart in the source; their conditions may differ.

How the values were obtained:
[1] = Absorption of orally administered chromium-51 compounds, radioactivity in liver and kidney (Example 1); settings: rat; for Total radioactivity in tissue, Kidney / Total radioactivity in tissue, Liver: 150 ng oral gavage, 120 h after administration
Experimental: In this example, chromic tripicolinate was first synthesized by combining 3.66 grams of picolinic acid (Sigma Chemical, St. Louis) and 2.66 grams of chromic chloride with 20 ml. of deionized water. The solution was heated with stirring for 15 minutes after which the contents were placed in a refrigerator overnight to obtain maximum crystalization. The supernatant was removed by vacuum filtration followed by recrystalization from hot deionized water. To synthesize chromic (chromium-51) tripicolinate, 0.12 micromoles recrystalized picolinic acid was added to a solution containing 0.03 micromoles of chromic (Cr^51) chloride in 5.0 ml. acetate buffer, pH 5.0. The solution was stirred for 30 minutes at 90° C., cooled and subsequently reheated for 30 minutes at 90° C. The solution was cooled to room temperature before use.
Each of four male Sprague-Dawley rats weighing 125-150g was given an oral dose of 150 ng. chromic (Cr-51) picolinate in 0.51 ml. by gavage tube. An identical quantity of Cr-5I as chloride in acetate buffer was also administered to each of four rats. […] One hundred twenty hours after oral administration of the two forms of labeled chromium, each of the rats was killed by exsanguination after which the liver and kidneys were removed and cut into 1.0 g portions for assay of radioactivity content.

[2] = tested on: Glucose Tolerance Factor activity; test: Glucose Tolerance Factor activity; settings: no data given
[3] = tested on: serum lipid parameters; test: Double-blind cross-over human study, serum lipid parameters (Example 3); assay type: in vivo
Experimental: Chromium tripicolinate was synthesized by first dissolving 2.66 g CrCl3.6 H2 O in 25 ml warm (60° C.), deionized water. Thereafter, 3.69 g picolinic acid (Sigma Chemical, St. Louis, Mo., U.S.A.) was added and the contents were stirred with gentle heating until the solution turned purple and crystals began to form. The solution was then left standing at 4° C. overnight. The supernatant was then discarded and the crystals were airdried at room temperature.
The placebo contained only 5 mg calcium phosphate. […] Compliance by subjects was monitored by capsule count. The foregoing study protocol is illustrated in FIG. 1.

[4] = Anabolic effect in male university students in weight training (Example 5); assay type: in vivo, human
Experimental: This study was performed to evaluate the anabolic effect of chromic tripicolinate in male subjects.
At the start of the study, 10 male university students enrolled in weight training classes, were given, at random, a 40-day supply of capsules that contained either placebo (5 mg of calcium phosphate) or chromic tripicolinate ([…] chromic tripicolinate admixed with 5 mg of calcium phosphate, which provided 200 ug of chromium). The identity of the capsules was known only to an individual who was not in any way involved in the study. During the 40-day period, each of the volunteers followed a prescribed weight lifting protocol for a total of 3 hours per week. Measurements taken at the beginning and again at the end of the study included various skin-fold thicknesses, biceps and calf circumferences, and body weight. Percent body fat was derived from the sum of the triceps, subscapular and chest skinfolds. Lean body mass was derived from anthropometrically-determined percent body fat: weight-(weight×percent body fat).

[5] = Oral toxicity experiment in rats (Example 2); assay type: in vivo
Experimental: In a toxicity experiment, rats weighing a mean of 223.4 g were given an oral suspension of 100 mg, 300 mg and 500 mg chromic tripicolinate in water. […] The tests were stopped at 500 mg because it was impossible to obtain a workable suspension beyond this level.

[6] = in vivo
Experimental: Subjects for the study were obtained after screening a group of volunteers. Thirty-two volunteers age 25-80 with total cholesterol levels of 5.7-8.3 mmoles/l (220-320 mg/dl) were initially chosen. […] None of the subjects was using beta blockers, thiazide diuretics, steroids, chromium supplements or any investigational drugs. The volunteers were requested not to alter dietary or exercise habits during the course of the study. Informed consent was obtained and the subjects were paid a stipend for their participation.
For the double-blind, cross-over study, subjects were divided randomly into two treatment groups by a non-participant. During each half of the study participants ingested gelatin capsules that contained either chromic tripicolinate or a placebo. The chromic tripicolinate supplement contained 1.6 mg chromium tripicolinate (200 micrograms Cr^+3) mixed with 5 mg calcium phosphate. The placebo contained only 5 mg calcium phosphate. The study consisted of two 42-day periods with a 14-day period off capsules between treatments. Compliance by subjects was monitored by capsule count.
At the beginning, after three weeks and at the end of each period, heart rate, blood pressure, weight and temperature were measured and a fasting-blood sample was drawn. Serum parameters measured included total cholesterol, LDL-cholesterol, HDL-cholesterol, triglycerides, apolipoprotein A1 and apolipoprotein B. Serum concentrations of cholesterol and triglycerides were determined with an Olympus 500 Automated Colormetric System (Olympus Instrument Co., Los Angeles, Calif., U.S.A.). HDL-cholesterol was assayed with an enzyme heparin-manganese chloride precipitation method (Albers et al., Clin Chem., 1978; 24:853-856). LDL-cholesterol was estimated by the method of Friedwald (Friedwald, Clin Chem., 1972; 18:499-502). Concentrations of apolipoprotein A1 and apolipoprotein B in serum were assayed with a nephelometric immunoassay (Naito, J. Clin. Immunol.. 1986; 9:110-120) using a Boehringer laser kit.
For statistical analysis of the measurements made in this study, the values obtained at the beginning and at the end of each 42-day period were used. Because each subject served as its own control, paired t tests were used to identify statistically significant differences between mean values of changes and differences in changes. Student's t test and p values were determiend with the program WORMSTAT™ (available from Small Business Computers, New England, Conn., U.S.A.).

[7] = tested on: insulin and insulin receptors; test: Binding to insulin and insulin receptors; settings: no data given
[8] = tested on: adult onset diabetes mellitus (AODM)
Experimental: Eleven subjects with adult onset diabetes mellitus (AODM), participated in this study. These subjects had hemoglobin A1 C concentrations greater than 9.0 and were on stable doses of oral hypoglycemic agents for four months. […] The dose of oral agent remained constant during the study.
The following parameters: Cholesterol, HDL, LDL, and hemoglobin A1 C were tested initially, and at the end of each half of the study. Fasting blood sugars, blood pressure, weight and temperature were tested initially; at three weeks; and at the end of the study.
Glycosylated hemoglobin was measured by a modification of the method of Clegg and Schroeder (Clegg, et al. J. Lab Clin. Med., 102:577-589, (1983)), using a Fast Hemoglobin Minicolumn, available from Isolab; Akron, Ohio, U.S.A.). Normal values are 5.5 to 7.5%. Fasting glucoses were measured by finger stick glucometer readings (using an Accucheck II from Boehringer Mannheim, Indianapolis, Ind., U.S.A.).
Split samples of cholesterol were sent to laboratories for analysis. Split samples of apolipoproteins were analyzed on a Beckman Array protein analyzer that was standardized by the Center for Disease Control, Atlanta, Georgia, U.S.A., using Lipid Research Clinic Guidelines (see J. A. M. A. 251: 351, (1984) and J. A. M. A. 251: 365, (1984)).
For EXAMPLE 4, summary statistics are expressed as the mean ± standard error of the mean (SEM). Split-plot analyses of variance were used to assess treatment effects on the various parameters in the cross-over studies of variance (see Hills, et al., Br. J. Clin. Pharmacol. 8:7-20, (1979)). Correlation analysis was performed with a linear regression curve-fitting program.

[9] = in vivo; cited from earlier work
[10] = 28 subjects, mean ± SD, 42 days
[11] = 28 subjects, mean ± SD, 42 days, listed as Chromic Tripicolinate
[12] = 28 subjects, mean ± SD, start of 42-day period
[13] = combined results, 42 days, p<0.001
[14] = 6 weeks Cr supplementation, 11 AODM subjects, mean ± SEM
[15] = 6 weeks Cr supplementation, 11 AODM subjects, mean ± SEM, significant difference from placebo, p <0.05

Compound: O=C([O-])c1ccccn1.O=C([O-])c1ccccn1.O=C([O-])c1ccccn1.[Cr+3] [Chromic (Cr-51) Picolinate, chromic (chromium-51) tripicolinate]
- Total radioactivity in tissue, Kidney [1]: 157525 CPM
- Total radioactivity in tissue, Liver [1]: 115075 CPM

Compound: chromic tripicolinate
- Glucose Tolerance Factor activity [2]: has Glucose Tolerance Factor activity
- Apo B, change ([3]; 28 subjects, 42 days, p = .001): -25 mg/dL
- Apo A, change ([3]; 28 subjects, 42 days, p = .003): +16 mg/dl
- apolipoprotein B, reduction ([3]; 28 subjects, 42 days, p=0.001): 16%
- LDL-cholesterol, final ([3]; 28 subjects, after 42 days): 178 mg/dL
- LDL-cholesterol, initial ([3]; 28 subjects, before 42 days): 200 mg/dL
- Apo A, final [3, 10]: 163 ± 31 mg/dL
- Apo B, final [3, 10]: 130 mg/dL
- Cholesterol Total, final [3, 10]: 256 mg/dL
- LDL, final [3, 10]: 5.1 mmol/L
- Cholesterol Total, final ([3]; 28 subjects, mean ± SD, 42 days, 200 micrograms Cr daily): 6.6 mmol/L
- Cholesterol Total, final ([3]; 28 subjects, mean ± SD, 42 days, 200 micrograms Cr daily, listed as Chromic Tripicolinate): 6.6 ± 1.0 mmol/L
- Apo B, final [3, 11]: 130 ± 45 mg/dL
- Cholesterol Total, final [3, 11]: 256 ± 41 mg/dL
- Apo A, initial [3, 12]: 147 ± 28 mg/dL
- Apo B, initial [3, 12]: 155 mg/dL
- LDL, initial [3, 12]: 5.7 mmol/L
- Apo B, initial ([3]; 28 subjects, mean ± SD, start of 42-day period, listed as Chromic Tripicolinate): 155 ± 50 mg/dL
- serum HDL-cholesterol, change in words ([3]; 28 subjects, p>0.05): increased slightly but not significantly
- LDL-cholesterol, decrease ([3]; 42 days): 10% and 10.5%
- Total cholesterol concentration, decrease ([3]; 42 days): 7%
- serum triglycerides, change in words ([3]; 42 days): No significant changes
- LDL-cholesterol, change in words [3, 13]: decreased significantly; also recorded: significant (p<0.001) reductions
- total cholesterol, change in words [3, 13]: decreased significantly; also recorded: significant (p<0.001) reductions
- apolipoprotein B, change in words ([3]; combined results, 42 days, p=0.001): significant reduction; also recorded: decreased significantly
- apolipoprotein A1, change in words ([3]; combined results, 42 days, p=0.003): significant elevation; also recorded: significantly elevated
- LDL-cholesterol, change in words ([3]; final 42 days, placebo-first group, p=0.003): decreased significantly
- total cholesterol, change in words ([3]; final 42 days, placebo-first group, p=0.009): decreased significantly
- apolipoprotein B, change in words ([3]; first 6-week period, subjects starting with chromic tripicolinate, p=0.003): significantly decreased
- total cholesterol, change in words ([3]; first 6-week period, subjects starting with chromic tripicolinate, p=0.007): significantly decreased
- LDL-cholesterol, change in words ([3]; first 6-week period, subjects starting with chromic tripicolinate, p=0.015): significantly decreased
- apolipoprotein A1, change in words ([3]; first 6-week period, subjects starting with chromic tripicolinate, p=0.047): significantly elevated
- subjects with decreased LDL-cholesterol ([3]; of 28 subjects): 20
- subjects with elevated cholesterol ([3]; of 28 subjects): 4
- subjects with lower total cholesterol ([3]; of 28 subjects): 22
- subjects with unchanged LDL-cholesterol ([3]; of 28 subjects): 3
- subjects with unchanged total cholesterol ([3]; of 28 subjects): 2
- apolipoprotein B, change in words ([3]; placebo-first group, after chromic tripicolinate, p=0.072): decreased, but not significantly
- apolipoprotein A1, change in words ([3]; placebo-first group, chromic tripicolinate period, p=0.007): increased significantly
- rate of absorption relative to chromic chloride ([1]; in vivo, po, 7200 min): about 4 times
- calculated lean body mass, increase ([4]; 40 days, 200 ug chromium, P=0.017): 1.6 kg
- calf circumference, increase ([4]; 40 days, 200 ug chromium, P=0.029): 1.15±0.67 cm
- body weight, increase ([4]; 40 days, 200 ug chromium, P=0.0325): 2.18 ± 1.34 kg
- increase in lean body mass compared with placebo group ([4]; Student's t test, P=0.0198): significantly greater
- human dose before any effects would be observed ([5]; 70 Kg human, extrapolated from rats): greater than 156 grams
- oral lethal dose ([5]; rats, mean 223.4 g, oral suspension in water): > 2200 mg/kg
- deaths ([5]; rats, oral 100 mg, 300 mg and 500 mg): No deaths occurred
- blood pressure, change in words [6]: No significant changes
- heart rate, change in words [6]: No significant changes
- subjects who developed a fine rash about their forearms [6]: one
- subjects who developed mouth ulcers [6]: one
- temperature, change in words [6]: No significant changes
- binding to insulin and insulin receptors [7]: binds to insulin and insulin receptors
- Cholesterol [8, 14]: 211.4
- HDL [8, 14]: 52.3
- LDL [8, 14]: 139.5
- Fasting Bld Sugar [8, 15]: 162.2
- Hemoglobin A1 C [8, 15]: 10.4
- HDL, trend in words ([8]; P was not <0.05): trends were favorable
- cholesterol, trend in words ([8]; P was not <0.05): trends were favorable
- fasting glucose, change in words ([8]; diabetic subjects): significant decreases
- glycosylated hemoglobin, change in words ([8]; diabetic subjects): significant decreases
- Blood Pressure, first figure ([8]; human, in vivo): 132.9
- Blood Pressure, second figure ([8]; human, in vivo): 72.4
- Heart Rate ([8]; human, in vivo): 70.1
- Temperature ([8]; human, in vivo): 97.8 °F
- blood pressure, change in words ([8]; human, in vivo): no significant changes
- heart rate, change in words ([8]; human, in vivo): no significant changes
- temperature, change in words ([8]; human, in vivo): no significant changes
- weight, change in words ([8]; human, in vivo): no significant changes
- LDL, decrease ([8]; treatment versus placebo (FIG. 9)): 8%

Compound: [Cl][Cr]([Cl])[Cl] [chromic chloride, reference compound]
- effect of supplementation, result in words [9]: improvements of risk factors associated with maturity-onset diabetes and cardiovascular diseases

Compound: [Cr] [chromium]
- effect of supplementation, result in words [9]: improvements in glucose tolerance, serum lipid concentrations, including high-density lipoprotein cholesterol, insulin and insulin binding

Compound: [Cl][51Cr]([Cl])[Cl] [Chromic (Cr-51) Chloride, chromic (Cr^51) chloride, reference compound]
- Total radioactivity in tissue, Kidney [1]: 39030 CPM
- Total radioactivity in tissue, Liver [1]: 30050 CPM
